In US20240165099A1, “METHODS FOR THE TREATMENT AND PREVENTION OF DISEASES OR INFECTIONS WITH MCP-1 INVOLVEMENT BY ADMINISTRATION OF TAFENOQUINE” (60 DEGREES PHARMACEUTICALS LLC, priority 2022, published 2024):

Experiments:
Babesia = details: mice; single doses for tafenoquine; cited from earlier work
SARS-CoV-2 [1] = test: Nasopharyngeal viral load change from baseline, regression analysis; assay type: in vivo, human; details: Log10 viral copy number/ml; baseline through Day 5; P 0.8650
Description: NP swabs were collected at Baseline and Day 5 and Log10 viral copy number/ml was determined utilizing the standard commercially available assay from Eurofins. Only samples from patients where valid baseline and Day 5 results were obtained were analyzed. Samples with values below the dynamic range of the assay were assigned a value equivalent to the detection limit. Samples with […] were assigned a value equivalent to half the detection limit. Viremia change from baseline was calculated by subtracting log 10 Day 5 copy number from the log 10 baseline copy number. Log10 Baseline and change from baseline values were used in the analyses.
Multivariate regression analysis (performed utilizing the standard built-in program in Graphpad Prism 9.3.1) was used to analyze the following dependent variables: Change in NP viral load from baseline through Day 5 (Regression 1) and total anti SARS-CoV-2 antibody change from baseline through Day 14 (Regression 2). The dependent variable data were tested to ensure that they passed at least three of four tests of normality (Anderson-Darling, D'Agostino-Pearson, Shapiro-Wilk and Kolmogorov-Smirnov tests) according to the standard built-in programs in GraphPad. The same independent variables described in Example 6 were utilized. […]

[2] = system: Monocyte chemotactic protein 1 (MCP-1); assay type: in vivo, human
[3] = system: blood stages of P. falciparum; details: Baird et al. 2002; McCarthy et al. 2019; cited from earlier work
SARS-CoV-2 [4] = assay type: cell-based; details: calculated relative to the CC50 for the 4-day test
[5] = system: total anti SARS-CoV-2 spike protein antibody; assay type: in vivo, human
Pneumocystis = details: mice; Bartlett et al. 1991; cited from earlier work
COVID-19 disease [6] = test: Phase II clinical trial, time to clinical recovery in mild-moderate COVID-19; assay type: in vivo, human
From the text: Laboratory endpoint and patient-level individual symptom data were collected in that study, have not been reported elsewhere, and form the basis for surprising findings about the therapeutic and mechanistic effects of tafenoquine described herein.
Longitudinal aggregate symptom data for individual patients from Dow and Smith (2022) were examined to determine the number of days required before each patients reported an aggregate symptom score of 2 for four days of more for the first time. This endpoint was not included as a pre-specified analysis in the original study design, and was only recently confirmed to be an endpoint of interest to regulars in mild-moderate COVID-19 disease in standard risk patients. […] A survival curve was generated, and data were analyzed using Graphpad Prism. […] At Day 28, which was the last day of the study, the proportion of patients with persistent COVID-19 symptoms was lower in the tafenoquine arm.

[7] = in vivo; cited from earlier work
COVID-19 disease [8] = details: mild-moderate COVID-19; exploratory analyses; P<0.02; Dow and Smith 2022; cited from earlier work
[9] = doses of up to 1200 mg over three days; Green et al 2014; cited from earlier work
in vitro = details: African green monkey, CC50, 4-day test, mock infected Vero E6 cells
Vero E6 cells = details: 4-day test, mock infected Vero E6 cells
[10] = predicted Day 5 values, all group comparisons vs placebo, independent of vaccination or baseline MCP-1

COc1cc(C)c2c(Oc3cccc(C(F)(F)F)c3)c(OC)cc(NC(C)CCCN)c2n1 (centres unmarked) [Tafenoquine]
dose that cleared Babesia parasitemia (Babesia): 20 mg/kg
Regression 1: NP Viral Load CFB, Beta for Treatment (TQ = 1, PL = 0) (SARS-CoV-2 [1]): −0.0735/
Regression 1: MCP1 Day 5 CFB (Multivariate), Beta for Treatment (TQ = 1, PL = 0) ([2]; Day 5 value − Baseline value, P 0.0093): −74.4/
Regression 2: MCP1 Day 14 CFB for high baseline MCP1, Beta for Treatment ([2]; baseline MCP-1 exceeding 350 units/ml, P 0.3304): 78.9/
Regression 3: MCP1 Day 14 CFB for low baseline MCP1, Beta for Treatment ([2]; baseline MCP-1 less than 350 units/ml, P 0.2356): −35.0/
Regression: MCP1 Day 14 CFB (rank-transformed), Beta for Treatment ([2]; human, in vivo): 0.584//
reduction in Day 5 MCP-1 (absolute) [2, 10]: at least 41
reduction in Day 5 MCP-1 (percent) [2, 10]: ≥ 10%
Regression 1: MCP1 Day 5 (Univariate), Beta for Treatment ([2]; univariate, P 0.2548): −45.2/
activity against the blood stages of P. falciparum [3]: quite effective
selectivity index (SARS-CoV-2 [4]): 14.3
effect on total anti-SARS-CoV-2 antibody generation ([5]; P=0.546 as printed): did not affect
Regression 2: Antibodies CFB (unvaccinated), Beta for Treatment ([5]; in vivo): −0.671/
cure of Pneumocystis infections (Pneumocystis): can be administered as monotherapy to cure
median time to clinical recovery (COVID-19 disease [6]; COVID-19 patients, 200 mg on Days 1, 2, 3 and 10, sustained recovery for four days or more, placebo 16 days): 13 days
proportion of patients with persistent COVID-19 symptoms at Day 28 (COVID-19 disease [6]; tafenoquine arm vs placebo, Day 28): lower
half-life [7]: 14 days
recovery from fever, cough and shortness of breath (COVID-19 disease [8]): accelerate recovery
effect on upper limit of 90% confidence interval of the QTC interval [9]: not found to increase

CCN(CCO)CCCC(C)Nc1ccnc2cc(Cl)ccc12 (centres unmarked) [Hydroxychloroquine]
CC50 (in vitro): ~55 µM
CC50 (Vero E6 cells): 67 µM

COc1cc(NC(C)CCCN)c2ncccc2c1 (centres unmarked) [Primaquine]
dose that cleared Babesia parasitemia (Babesia): 100 mg/kg
cure of Pneumocystis infections (Pneumocystis): must be combined with clindamycin
